We go through twelve compounds from patent US4001323A, “Water-soluble, non-ionizing hydroxy-containing amide derivatives of 2,4,6-triiodo-isophthalic acid” (Savac AG, priority 1974, dated 1977).

≈ marks a conversion by molar mass, not a printed value.

Data set [1] can be described thus: Solubility in water (Table I). The data set is classed as physicochemical. The note with it: for solubility: water. The procedure:
The following Examples are further illustrative of this invention. All solubility values are in grams per 100 ml unless stated otherwise.

Data set [2] is described as follows: Thermal stability of aqueous solutions. The note with it: 400 mg I per ml, under nitrogen, 120° C. Also on record: key to Appearance, initial / Appearance, 30 min. / Appearance, 15 hrs.: (1): Clear solution; (2): Colorless; (3): Slightly colored; (4): Brown suspension, black sediment. The data set is classed as physicochemical. The procedure: For a comparison of thermal stability, aqueous solutions of Compounds A and H containing 400 mg I per ml where heated under nitrogen at 120° C. pH, iodide ion concentration and appearance were determined initially, after 30 minutes and after 15 hours.

For data set [3] the following is noted: cited from earlier work.
In data set [4] the test system is mice. The following applies: intravenous, literature; cited from earlier work.
The conditions of data set [5]: in vivo; cited from earlier work.
For data set [6], the system named is rabbits. As to the kind of experiment: Acute intracisternal toxicity LD50 in rabbits. The data set is classed as in vivo. The following applies: 400 mg I per ml. How it is done: (§1) The solutions injected for i.v., i.p., i.ci., and i.ca. toxicity tests contained 400 mg I per ml. The rate of injection was 20 mg I per kg and minute for i.v. and i.ca. toxicity. In the tests for i.ce. toxicity, the injected volume was 5ml/kg, and the concentration was varied. Results of i.v. and i.p. toxicity tests were evaluated after 12 days, results of i.ce. and i.ca. toxicity tests after 48 hours.

Data set [7] deals with mice. As to the kind of experiment: Acute toxicity LD50 in mice (i.v., i.p., i.ce.). The data set is classed as in vivo. The following applies: for Toxicity, LD50, i.ce.: intracerebral, 5 ml/kg, concentration varied, evaluated after 48 hours; for Toxicity, LD50, i.p.: intraperitoneal; for Toxicity, LD50, i.p. / Toxicity, LD50, i.v.: 400 mg I per ml, evaluated after 12 days; for Toxicity, LD50, i.v.: intravenous, 20 mg I per kg and minute. How it is done: as §1

Data set [8] can be described thus: Solubility in organic solvents. The data set is classed as physicochemical. The procedure:
(§2) 10 Ml of a solution containing 10 g Compound A was stored several days at 4° C, whereby only 2.3 g of the compound was precipitated.

Data set [9] concerns rats. The data set is described as follows: Acute intracarotideal toxicity LD50 in rats. It is filed as in vivo. The note with it: 400 mg I per ml, 20 mg I per kg and minute, evaluated after 48 hours. The procedure:
as §1

Data set [10] can be described thus: Viscosity of aqueous solutions. The data set is classed as physicochemical. The procedure: Aqueous solutions of Compound A containing 300 and 400 mg iodine respectively had viscosities of 8.95 and 40.6 c.p. at 20°, 4.70 and 16.1 c.p. at 37° C. A low viscosity facilitates injection.
Data set [11] is described as follows: Storage / supersaturation stability of aqueous solutions. It is filed as physicochemical. How it is done:
as §2
The residue was recrystallized from aqueous methanol and consisted of 11.6 g DL-5-α,β-dihydroxypropionylamino-2,4,6-triiodo-isophtalic acid di-(1,3-dihydroxyisopropylamide) (62.5% yield). It sintered and melted at 210° - 230° C and decomposed at 260° C. It gave an Rf value of 0.15 by thin layer chromatography on silica gel with chloroform/methanol/aqueous 25% ammonia 6:3:1. It was identified by elementary analysis for carbon and iodine which yielded values of 25.70% C and 48.29% I against 25.74% and 48.00% respectively calculated for C17 H22 I3 N3 O9.

[12] abbreviates: 20° C, read-out: Solubility in water at 20° C.
Where [13] appears, read: 40° C, read-out: Solubility in water at 40° C.
Setting [14] is: 60° C, read-out: Solubility in water at 60° C.

With `CC(=O)Nc1c(I)c(C(=O)N[C@H]2C(O)O[C@H](CO)[C@@H](O)[C@@H]2O)c(I)c(N(C)C(C)=O)c1I` (stereo partly shown) [Compound H, 3-acetylamino-5-N-methyl-acetylamino-2,4,6-triiodobenzoyl-glucosamine, reference compound], the solubility – broadly, how much of the substance goes into solution per volume – in [1] (setting [12]) is ~800 mg/mL (≈ 1010 mM). Besides, in data set [2], the “Appearance, 30 min.” value is recorded as “(3)”; the “iodide ion concentration, 30 min.” value turned out to be 1.71 mg I' per ml; the “pH, 30 min.” value is given as 6.45; the “Appearance, 15 hrs.” value is reported as “(4)”. In data set [2], the “iodide ion concentration, 15 hrs.” value was determined as 40.60 mg I' per ml; the “pH, 15 hrs.” value is reported as 2.65; the “Appearance, initial” value is listed as “(1)”; the “iodide ion concentration, initial” value is 0.66 mg I' per ml. Further, the “pH, initial” value in data set [2] was 6.54. Moreover, the “Solubility in water (in words, known compounds)” value in data set [3] is on record as “very soluble in water”. In addition, in data set [4], the “i.v. LD50 in mice (F.L. Weitl, 170th Am. Chem. Soc. meeting)” value was 23800 mg/kg and the “i.v. LD50 in mice (F.L. Weitl, 170th Am. Chem. Soc. meeting), as iodine” value is given as 11400 mg I per kg. Further, the “Toxicity (in words, known compound)” value in data set [5] is on record as “relatively non-toxic”. Besides, the “Toxicity, LD50, i.ci.” value in data set [6] stood at 100 mg I/kg. In data set [7], the “Toxicity, LD50, i.ce.” value was 1400 mg I/kg; the “Toxicity, LD50, i.p.” value was found to be 4800 mg I/kg; the “Toxicity, LD50, i.v.” value stood at 10200 mg I/kg.
For the compound `CC(O)C(=O)Nc1c(I)c(C(=O)NC(CO)CO)c(I)c(C(=O)NC(CO)CO)c1I` (racemic) [Compound B, dl-5-α-hydroxypropionylamino-2,4,6triiodo-isophthalic acid di-(1,3-dihydroxyisopropylamide)], the solubility in [1] (setting [12]) was 300 mg/mL (≈ 386 mM); in [1] (setting [13]), 300 mg/mL (≈ 386 mM); in data set [1] (setting [14]) it was 320 mg/mL (≈ 412 mM).
Regarding `O=S(=O)(CI)NC(CO)CO` [Compound I, iodomethanesulfonic acid αγ-dihydroxyisopropylamide], in [6], the “Toxicity, LD50, i.ci.” value is listed as 89 mg I/kg. For the same compound, in data set [7], the “Toxicity, LD50, i.ce.” value came out at 385 mg I/kg and the “Toxicity, LD50, i.v.” value turned out to be 4700 mg I/kg.
Turning to `CC(O)C(=O)Nc1c(I)c(C(=O)NCC(O)CO)c(I)c(C(=O)NCC(O)CO)c1I` (mixture of isomers) [Compound D, 5-DL-α-Hydroxypropionylamino-2,4,6-triiodo-isophthalic acid di-(DL-2,3-dihydroxypropylamide)], the “Solubility in water (in words)” value in data set [1] is listed as “somewhat less soluble than Compound C”. In addition, the “Solubility in water at 20° C” value in [1] (20° C) was 14 g/100 ml. In [1] (40° C), the “Solubility in water at 40° C” value worked out at 20 g/100 ml. In addition, the “Solubility in water at 60° C” value in data set [1] (60° C) was 34 g/100 ml. Besides, the values for the solubility in data set [1] (setting [12]), in [1] (setting [13]) and in data set [1] (setting [14]) were 140 mg/mL, 200 mg/mL and 340 mg/mL, respectively.
For “5-α-acetoxypropionylamino-2,4,6-triiodo-isophthalic acid di-(2,2-dimethyl-1,3-dioxolan-4-yl-methylamide)”, the “Solubility in water (in words)” value in data set [1] was “practically insoluble in water”.
In the case of `CC(=O)Nc1c(I)c(C(=O)NCC(O)CO)c(I)c(C(=O)NCC(O)CO)c1I` (stereo not shown) [Compound F, 5-acetylamino:2,4,6-triiodo-isophthalic acid di-(2,3-dihydroxypropylamide), reference compound], the “Solubility in water (in words)” value in data set [1] is recorded as “poor solubility”. The figures for the solubility in data set [1] (setting [12]), in data set [1] (setting [13]) and in data set [1] (setting [14]) were 5 mg/mL (≈ 6.69 mM), 8 mg/mL (≈ 10.7 mM) and 15 mg/mL (≈ 20.1 mM), respectively.
For the compound `C[C@H](O)C(=O)Nc1c(I)c(C(=O)NCC(O)CO)c(I)c(C(=O)NCC(O)CO)c1I` (mixture of isomers) [Compound C, L-5-α-hydroxypropionylamino-2,4,6-triiodo-isophthalic acid di-(DL-2,3-dihydroxypropyl-amide)], the “Solubility in water (in words)” value in [1] is on record as “very easily soluble in water”. In addition, the solubility in [1] (setting [12]) was determined as 157 mg/mL; in data set [1] (setting [13]), 210 mg/mL; in data set [1] (setting [14]), 400 mg/mL. In data set [8] (ethanol), the “Solubility in ethanol (in words)” value is recorded as “somewhat less soluble in ethanol”.
Turning to `C[C@H](O)C(=O)Nc1c(I)c(C(=O)NC(CO)CO)c(I)c(C(=O)NC(CO)CO)c1I` [Compound A, L-5-α-Hydroxypropionylamino-2,4,6-triiodo-isophthalic acid di-(1,3-dihydroxyisopropylamide)], the “Toxicity, LD50, i.ca.” value in data set [9] turned out to be 6500 mg I/kg. For the same compound, the “Solubility in water (in words)” value in data set [1] is given as “very readily soluble in water”. Besides, the solubility in data set [1] (setting [12]) was determined as 890 mg/mL (≈ 1150 mM). The solubility in data set [1] (setting [13]) worked out at 1040 mg/mL (≈ 1340 mM). Moreover, in data set [1] (setting [14]), the solubility was 1150 mg/mL (≈ 1480 mM). For the same compound, in [2], the “Appearance, 30 min.” value is recorded as “(1) (2)”; the “iodide ion concentration, 30 min.” value worked out at 0.3 mg I' per ml; the “pH, 30 min.” value came to 7.29; the “Appearance, 15 hrs.” value is on record as “(1) (3)”. In addition, in data set [2], the “iodide ion concentration, 15 hrs.” value is given as 1.8 mg I' per ml; the “pH, 15 hrs.” value is on record as 5.15; the “Appearance, initial” value is on record as “(1) (2)”; the “iodide ion concentration, initial” value came out at 0.15 mg I' per ml. Besides, in data set [2], the “pH, initial” value stood at 7.43. The “Solubility in ethanol (in words)” value in data set [8] (ethanol) is “miscible with boiling ethanol”. In data set [8] (methanol), the Solubility in methanol result is on record as “practically unlimited”. Besides, the solubility in [8] (organic solvent or mixture, ethanol, room temperature) was ~100 mg/mL (≈ 129 mM). Besides, the “Viscosity of aqueous solution, 300 mg iodine, 20° C” value in data set [10] (300 mg iodine, 20° C) stood at 8.95 c.p. The “Viscosity of aqueous solution, 300 mg iodine, 37° C” value in data set [10] (300 mg iodine, 37° C) was 4.70 c.p. Moreover, in data set [10] (400 mg iodine, 20° C), the “Viscosity of aqueous solution, 400 mg iodine, 20° C” value is 40.6 c.p. Also, in data set [10] (400 mg iodine, 37° C), the “Viscosity of aqueous solution, 400 mg iodine, 37° C” value came to 16.1 c.p. The “Toxicity, LD50, i.ci.” value in [6] was found to be 250 mg I/kg. Moreover, in data set [7], the “Toxicity, LD50, i.ce.” value is on record as 1500 mg I/kg; the “Toxicity, LD50, i.p.” value was found to be 20000 mg I/kg; the “Toxicity, LD50, i.v.” value was 21800 mg I/kg. Besides, the “Amount precipitated from aqueous solution on storage” value in data set [11] (10 ml of solution containing 10 g, several days at 4° C) is given as 2.3 g.
Regarding `CC(=O)Nc1c(I)c(C(=O)N(C)CC(O)CO)c(I)c(C(=O)N(C)CC(O)CO)c1I` (stereo not shown) [G, 5-acetylamino-2,4,6-triiodo-isophthalic acid di-(N-methyl-2,3-dihydroxypropylamide)], in data set [1] (setting [12]), the solubility turned out to be 550 mg/mL (≈ 710 mM). For the same compound, in data set [6], the “Toxicity, LD50, i.ci.” value worked out at 81 mg I/kg. Also, in data set [7], the “Toxicity, LD50, i.ce.” value was found to be 820 mg I/kg and the “Toxicity, LD50, i.v.” value was determined as 15700 mg I/kg.
Consider `CNC(=O)c1c(I)c(NC(=O)CCCCC(=O)Nc2c(I)c(C(=O)O)c(I)c(C(=O)NC)c2I)c(I)c(C(=O)O)c1I` [Compound K, 5,5'-adipoyldiimino-bis-(2,4,6-triiodo-N-methyl-isophthalamic acid)], for which, in [6], the “Toxicity, LD50, i.ci.” value stood at 37 mg I/kg. In data set [7], the “Toxicity, LD50, i.ce.” value came out at 280 mg I/kg and the “Toxicity, LD50, i.v.” value was determined as 5500 mg I/kg.
`O=C(NC(CO)CO)c1c(I)c(NC(=O)C(O)CO)c(I)c(C(=O)NC(CO)CO)c1I` (racemic) [DL-5-α,β-dihydroxypropionylamino-2,4,6-triiodo-isophtalic acid di-(1,3-dihydroxyisopropylamide)]: the “Solubility in water (in words)” value in [1] is recorded as “good solubility in warm water”. In addition, in [11] (37° C, water), the “Stability of supersaturated solutions” value is “stable for several hours at 37 °C”.
In the case of `CC(=O)Nc1c(I)c(C(=O)NC(CO)CO)c(I)c(C(=O)NC(CO)CO)c1I` [E, 5-acetylamino-2,4,6-triiodo-isophthalic acid di-(1,3-dihydroxisopropylamide), reference compound], the “Solubility in water (in words)” value in data set [1] is on record as “poor solubility”. The solubility in data set [1] (setting [12]) is 2 mg/mL (≈ 2.68 mM); in [1] (setting [14]) it was 5 mg/mL (≈ 6.69 mM).
